Source: PubChem BioAssay (NCI)
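Protocol summary: plate cells (96-well), add compound at 5 concentrations, incubate 48 h, interpolate endpoints linearly. The concentration for full growth arrest is given as TGI.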

Assays:
Test in all cases: growth of human tumour cells (NCI), 48 h
RXF 393 renal = tested on: RXF 393 renal
DLD-1 colon = tested on: DLD-1 colon
SK-MEL-5 melanoma = tested on: SK-MEL-5 melanoma
NCI-H23 lung = tested on: NCI-H23 lung
DMS 114 small cell lung = tested on: DMS 114 small cell lung
UACC-257 melanoma = tested on: UACC-257 melanoma
KM20L2 colon = tested on: KM20L2 colon
LXFL 529 NSCLC = tested on: LXFL 529 NSCLC
SNB-78 CNS = tested on: SNB-78 CNS
DMS 273 small cell lung = tested on: DMS 273 small cell lung
U251 CNS = tested on: U251 CNS
UO-31 renal = tested on: UO-31 renal
SNB-75 CNS = tested on: SNB-75 CNS
LOX IMVI melanoma = tested on: LOX IMVI melanoma
MDA-MB-435 = tested on: MDA-MB-435
BT-549 breast = tested on: BT-549 breast
MDA-N = tested on: MDA-N
NCI/ADR-RES ovarian = tested on: NCI/ADR-RES ovarian
HS 578T breast = tested on: HS 578T breast
DU-145 prostate = tested on: DU-145 prostate

Cc1cc2n([O-])cccc-2[n+](=O)c1
TGI (RXF 393 renal): > 100 µM
TGI (DLD-1 colon): > 100 µM
TGI (SK-MEL-5 melanoma): > 100 µM
TGI (NCI-H23 lung): > 100 µM
TGI (DMS 114 small cell lung): > 100 µM
TGI (UACC-257 melanoma): > 100 µM
TGI (KM20L2 colon): > 100 µM
TGI (LXFL 529 NSCLC): > 100 µM
TGI (SNB-78 CNS): > 100 µM
TGI (DMS 273 small cell lung): > 100 µM
TGI (U251 CNS): > 100 µM
TGI (UO-31 renal): > 100 µM
TGI (SNB-75 CNS): > 100 µM

COc1ccc(-c2c3ccccc3c(-c3ccc(OCCCCCBr)cc3)c3ccccc23)cc1
TGI (DLD-1 colon): > 100 µM
TGI (DMS 114 small cell lung): > 100 µM
TGI (KM20L2 colon): > 100 µM
TGI (LOX IMVI melanoma): > 100 µM
TGI (LXFL 529 NSCLC): > 100 µM
TGI (DMS 273 small cell lung): > 100 µM
TGI (UO-31 renal): > 100 µM

COc1cc2cc(C(=O)N3CC(CCl)c4c3cc([N+](C)(C)Cc3ccc([N+](=O)[O-])n3C)c3ccccc43)[nH]c2c(OC)c1OC (configuration not stated)
TGI (MDA-MB-435): 60.7 µM
TGI (BT-549 breast): 11.5 µM
TGI (SK-MEL-5 melanoma): 4.18 µM
TGI (NCI-H23 lung): 2.49 µM
TGI (MDA-N): 6.64 µM
TGI (UACC-257 melanoma): 5.4 µM
TGI (LOX IMVI melanoma): 12.3 µM
TGI (NCI/ADR-RES ovarian): 4.38 µM
TGI (U251 CNS): > 100 µM
TGI (HS 578T breast): 38.2 µM
TGI (SNB-75 CNS): 7.18 µM
TGI (DU-145 prostate): 23.8 µM
